How the values were obtained:
F508delCFTR [1] = biological target: T1, F508delCFTR (Homo sapiens, UniProt P13569, DEL508-508); assay: Cell Surface Expression-Horse Radish Peroxidase (CSE-HRP) assay, test compound without co-corrector; format: cell-based; conditions: for Emax: maximum at any tested concentration, normalized to positive control, without co-corrector; for EC50: test compound without co-corrector;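 on Emax: percent of on-plate 2 µM positive control corrector response over DMSO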
T1 construct: expressed in transfected cells; host or cells: CFBE41o- human lung-derived epithelial cells (CFBE41o-F508delCFTR-HRP), doxycycline-inducible
Method in brief: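 CFBE41o- cells expressing F508delCFTR with HRP in the fourth exofacial loop, induced with 0.5 μg/mL doxycycline for 72 h at 37° C, then exposed to compound alone for 18-24 h at 33° C, 8-point 3-fold series from 20 μM. Surface HRP read by luminol luminescence, normalized to positive corrector control versus DMSO; EC50 from variable-slope sigmoidal fit of three replicate plates.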

F508delCFTR [2] = biological target: T1, F508delCFTR; assay: Cell Surface Expression-Horse Radish Peroxidase (CSE-HRP) assay, test compound with co-corrector; format: cell-based; conditions: with 2 μM co-corrector; for Maximum % activity (with co-corrector): maximum at any tested concentration, normalized to positive control;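 on Maximum % activity (with co-corrector): percent of 2 µM positive control corrector over DMSO; co-corrector is that same compound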
Method in brief: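 CFBE41o- cells expressing F508delCFTR with HRP in the fourth exofacial loop, induced with 0.5 μg/mL doxycycline for 72 h, then treated 18-24 h at 33° C. with compound (8 points, top 20 μM, 3-fold) plus 2 μM co-corrector. Surface HRP read by luminol luminescence; activity normalised to positive control, EC50 from variable-slope sigmoidal fit.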

T1 sequence (P13569 with tags, fused parts or gaps DEL508-508): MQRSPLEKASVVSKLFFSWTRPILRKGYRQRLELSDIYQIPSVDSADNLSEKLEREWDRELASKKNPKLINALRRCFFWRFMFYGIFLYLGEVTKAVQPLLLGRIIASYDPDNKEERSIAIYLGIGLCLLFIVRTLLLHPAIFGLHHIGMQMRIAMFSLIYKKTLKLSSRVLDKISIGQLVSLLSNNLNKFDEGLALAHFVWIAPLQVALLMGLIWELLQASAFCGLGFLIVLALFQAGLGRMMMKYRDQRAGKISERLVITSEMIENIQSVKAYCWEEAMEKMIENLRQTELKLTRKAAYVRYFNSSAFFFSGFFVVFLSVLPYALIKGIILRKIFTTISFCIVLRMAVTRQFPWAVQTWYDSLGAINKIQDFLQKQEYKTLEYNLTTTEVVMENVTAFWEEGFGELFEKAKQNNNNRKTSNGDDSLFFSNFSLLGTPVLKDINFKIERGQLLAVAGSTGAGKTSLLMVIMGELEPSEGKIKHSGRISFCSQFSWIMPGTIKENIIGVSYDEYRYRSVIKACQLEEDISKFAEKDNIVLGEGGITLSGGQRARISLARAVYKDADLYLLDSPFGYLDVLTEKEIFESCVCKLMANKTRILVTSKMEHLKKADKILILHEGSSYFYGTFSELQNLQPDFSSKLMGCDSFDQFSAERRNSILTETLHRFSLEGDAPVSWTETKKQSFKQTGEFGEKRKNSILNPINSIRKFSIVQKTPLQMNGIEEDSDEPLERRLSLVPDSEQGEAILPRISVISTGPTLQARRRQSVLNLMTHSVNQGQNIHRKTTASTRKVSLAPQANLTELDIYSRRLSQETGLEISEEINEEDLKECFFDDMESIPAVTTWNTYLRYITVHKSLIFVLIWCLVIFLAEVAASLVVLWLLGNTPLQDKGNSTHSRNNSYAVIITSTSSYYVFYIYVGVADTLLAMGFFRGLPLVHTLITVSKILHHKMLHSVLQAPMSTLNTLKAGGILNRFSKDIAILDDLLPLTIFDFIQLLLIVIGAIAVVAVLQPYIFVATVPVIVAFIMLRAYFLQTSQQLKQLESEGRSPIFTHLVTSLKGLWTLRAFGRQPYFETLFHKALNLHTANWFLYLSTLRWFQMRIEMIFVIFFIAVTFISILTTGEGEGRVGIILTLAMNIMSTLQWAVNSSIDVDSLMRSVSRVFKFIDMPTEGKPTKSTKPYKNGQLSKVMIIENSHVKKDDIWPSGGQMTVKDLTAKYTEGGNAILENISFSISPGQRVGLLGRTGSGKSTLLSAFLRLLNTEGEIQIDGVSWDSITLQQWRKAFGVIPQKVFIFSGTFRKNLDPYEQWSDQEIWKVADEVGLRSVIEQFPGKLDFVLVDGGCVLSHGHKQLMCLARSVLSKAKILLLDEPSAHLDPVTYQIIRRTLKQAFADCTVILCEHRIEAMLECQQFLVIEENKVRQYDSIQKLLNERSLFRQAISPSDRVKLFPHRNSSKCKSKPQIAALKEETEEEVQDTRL

Compound	Emax (F508delCFTR [1])	EC50 (F508delCFTR [1])	Maximum % activity (with co-corrector) (F508delCFTR [2])	EC50 (F508delCFTR [2])
COc1ccc(C(F)(F)F)c2c1[C@H](C(=O)NS(=O)(=O)c1cccc3nc(C)ccc13)CC2 [Example I-118, (1R)-7-methoxy-N-(2-methylquinoline-5-sulfonyl)-4-(trifluoromethyl)-2,3-dihydro-1H-indene-1-carboxamide]	≥ 150%	< 3 µM	+++ (≥350)	< 3 µM
COc1ccc(C2CCC2)c2c1C(C(=O)NS(=O)(=O)c1cccc3c1NCCC3)CC2 (stereo not drawn) [Example I-119, 4-cyclobutyl-7-methoxy-N-(1,2,3,4-tetrahydroquinoline-8-sulfonyl)-2,3-dihydro-1H-indene-1-carboxamide]	≥ 150%	3 to 10 µM	+++ (≥350)	3 to 10 µM
COc1ncc(C2CCC2)c2c1[C@H](C(=O)NS(=O)(=O)c1cccc3ccccc13)CCC2 [Example I-120, (8R)-4-cyclobutyl-1-methoxy-N-(naphthalene-1-sulfonyl)-5,6,7,8-tetrahydroisoquinoline-8-carboxamide]	≥ 150%	< 3 µM	+++ (≥350)	< 3 µM
COc1ncc(C2CCC2)c2c1[C@@H](C(=O)NS(=O)(=O)c1cccc3ccccc13)CCC2 [Example I-121, (8S)-4-cyclobutyl-1-methoxy-N-(naphthalene-1-sulfonyl)-5,6,7,8-tetrahydroisoquinoline-8-carboxamide]	≥ 150%	3 to 10 µM	+++ (≥350)	3 to 10 µM
COc1ccc(C2CCC2)c2c1[C@@H](C(=O)NS(=O)(=O)c1cccc3c1CCCN3)CC2 [Example I-122, (1S)-4-cyclobutyl-7-methoxy-N-(1,2,3,4-tetrahydroquinoline-5-sulfonyl)-2,3-dihydro-1H-indene-1-carboxamide]	≥ 150%	3 to 10 µM	+++ (≥350)	3 to 10 µM
COc1ccc(C2CCC2)c2c1[C@@H](C(=O)NS(=O)(=O)c1cccc3ncn(C)c13)CC2 [Example I-123, (1S)-4-cyclobutyl-7-methoxy-N-(1-methyl-1H-benzimidazole-7-sulfonyl)-2,3-dihydro-1H-indene-1-carboxamide]	≥ 150%	3 to 10 µM	+++ (≥350)	< 3 µM
C=C(C)c1ccc(OC)c2c1CCC2C(=O)NS(=O)(=O)c1cccc2ccccc12 (stereo not drawn) [Example I-124, 7-methoxy-N-(naphthalene-1-sulfonyl)-4-(prop-1-en-2-yl)-2,3-dihydro-1H-indene-1-carboxamide]	≥ 150%	< 3 µM	+++ (≥350)	< 3 µM
COc1ccc(C(C)(C)O)c2c1C(C(=O)NS(=O)(=O)c1cccc3ccccc13)CC2 (stereo not drawn) [Example I-125, 4-(2-hydroxypropan-2-yl)-7-methoxy-N-(naphthalene-1-sulfonyl)-2,3-dihydro-1H-indene-1-carboxamide]	50 to 150%	3 to 10 µM	+++ (≥350)	3 to 10 µM
COc1ccc(C2CCC2)c2c1[C@H](C(=O)NS(=O)(=O)c1cccc3ncn(C)c13)CC2 [Example I-126, (1R)-4-cyclobutyl-7-methoxy-N-(1-methyl-1H-benzimidazole-7-sulfonyl)-2,3-dihydro-1H-indene-1-carboxamide]	≥ 150%	< 3 µM	+++ (≥350)	< 3 µM
COc1ccc(C2CCC2)c2c1[C@@H](C(=O)NS(=O)(=O)c1cccc3nc(C)ccc13)CC2 [Example I-127, (1S)-4-cyclobutyl-7-methoxy-N-(2-methylquinoline-5-sulfonyl)-2,3-dihydro-1H-indene-1-carboxamide]	≥ 150%	3 to 10 µM	+++ (≥350)	< 3 µM
COc1ccc(C2CCC2)c2c1[C@H](C(=O)NS(=O)(=O)c1cccc3nc(C)ccc13)CC2 [Example I-128, (1R)-4-cyclobutyl-7-methoxy-N-(2-methylquinoline-5-sulfonyl)-2,3-dihydro-1H-indene-1-carboxamide]	≥ 150%	3 to 10 µM	+++ (≥350)	< 3 µM
COc1ccc(C2CCC2)c2c1[C@H](C(=O)NS(=O)(=O)c1cccc3c1CCCN3)CC2 [Example I-129, (1R)-4-cyclobutyl-7-methoxy-N-(1,2,3,4-tetrahydroquinoline-5-sulfonyl)-2,3-dihydro-1H-indene-1-carboxamide]	≥ 150%	< 3 µM	+++ (≥350)	< 3 µM
COc1ccc(C2CCC2)c2c1C(C(=O)NS(=O)(=O)c1cccc3cnn(C)c13)C2 (stereo not drawn) [Example I-132, 2-cyclobutyl-5-methoxy-N-(1-methyl-1H-indazole-7-sulfonyl)bicyclo[4.2.0]octa-1,3,5-triene-7-carboxamide]	≥ 150%	< 3 µM	+++ (≥350)	< 3 µM
COc1ccc(C2CCC2)c2c1C(C(=O)NS(=O)(=O)c1cccc3ncn(C)c13)CC2 (stereo not drawn) [Example I-133, 4-cyclobutyl-7-methoxy-N-(1-methyl-1H-benzimidazole-7-sulfonyl)-2,3-dihydro-1H-indene-1-carboxamide]	≥ 150%	< 3 µM	+++ (≥350)	< 3 µM
COc1ccc(C2CCC2)c2c1C(C(=O)NS(=O)(=O)c1cccn3nccc13)CC2 (stereo not drawn) [Example I-135, 4-cyclobutyl-7-methoxy-N-(pyrazolo[1,5-a]pyridine-4-sulfonyl)-2,3-dihydro-1H-indene-1-carboxamide]	≥ 150%	3 to 10 µM	+++ (≥350)	< 3 µM
COc1ccc(C2CCC2)c2c1C(C(=O)NS(=O)(=O)c1cccn3nccc13)C2 (stereo not drawn) [Example I-136, 2-cyclobutyl-5-methoxy-N-(pyrazolo[1,5-a]pyridine-4-sulfonyl)bicyclo[4.2.0]octa-1,3,5-triene-7-carboxamide]	≥ 150%	< 3 µM	+++ (≥350)	< 3 µM
COc1ccc(C2CCCO2)c2c1C(C(=O)NS(=O)(=O)c1cccc3ccccc13)CC2 (stereo not drawn) [Example I-138, 7-methoxy-N-(naphthalene-1-sulfonyl)-4-(oxolan-2-yl)-2,3-dihydro-1H-indene-1-carboxamide]	≥ 150%	3 to 10 µM	+++ (≥350)	< 3 µM
COCc1ccc(OC)c2c1CCC2C(=O)NS(=O)(=O)c1cccc2ccccc12 (stereo not drawn) [Example I-139, 7-methoxy-4-(methoxymethyl)-N-(naphthalene-1-sulfonyl)-2,3-dihydro-1H-indene-1-carboxamide]	≥ 150%	3 to 10 µM	+++ (≥350)	< 3 µM
COc1ccc(CC(C)C)c2c1C(C(=O)NS(=O)(=O)c1cccc3ncccc13)CC2 (stereo not drawn) [Example I-140, 7-methoxy-4-(2-methylpropyl)-N-(quinoline-5-sulfonyl)-2,3-dihydro-1H-indene-1-carboxamide]	≥ 150%	< 3 µM	+++ (≥350)	< 3 µM
COc1ccc(C2CCC2)c2c1[C@H](C(=O)NS(=O)(=O)c1cccc3cnn(C)c13)C2 [Example I-144, (7R)-2-cyclobutyl-5-methoxy-N-(1-methyl-1H-indazole-7-sulfonyl)bicyclo[4.2.0]octa-1,3,5-triene-7-carboxamide]	≥ 150%	< 3 µM	+++ (≥350)	< 3 µM
COc1ccc(C2CCC2)c2c1[C@H](C(=O)NS(=O)(=O)c1cccc3c1CCCN3)C2 [Example I-146, (7R)-2-cyclobutyl-5-methoxy-N-(1,2,3,4-tetrahydroquinoline-5-sulfonyl)bicyclo[4.2.0]octa-1,3,5-triene-7-carboxamide]	≥ 150%	< 3 µM	+++ (≥350)	< 3 µM
COc1cccc2c1C(C(=O)NS(=O)(=O)c1cccc3ccccc13)CC2(C)C (stereo not drawn) [Example I-149, 7-methoxy-3,3-dimethyl-N-(naphthalene-1-sulfonyl)-2,3-dihydro-1H-indene-1-carboxamide]	≥ 150%	< 3 µM	+++ (≥350)	< 3 µM
COc1ccc(C2CCC2)c2c1[C@H](C(=O)NS(=O)(=O)c1cccn3nccc13)CC2 [Example I-151, (1R)-4-cyclobutyl-7-methoxy-N-(pyrazolo[1,5-a]pyridine-4-sulfonyl)-2,3-dihydro-1H-indene-1-carboxamide]	≥ 150%	3 to 10 µM	+++ (≥350)	< 3 µM
COc1cccc2c1C(C(=O)NS(=O)(=O)c1cccc3ncccc13)CC2(C)C (stereo not drawn) [Example I-152, 7-methoxy-3,3-dimethyl-N-(quinoline-5-sulfonyl)-2,3-dihydro-1H-indene-1-carboxamide]	≥ 150%	3 to 10 µM	+++ (≥350)	< 3 µM

— patent publication US20180244611A1, “Modulators of the Cystic Fibrosis Transmembrane Conductance Regulator Protein and Methods of Use” (AbbVie S.à.r.l., priority 2017, published 2018)
